Results on 60 molecules are retold here after US7772271B2 (priority 2004, dated 2010).

On to `COCCN(C)C(=O)c1ccc2c(C#N)c(-c3ccc(NC(=O)OC(C)C)cc3)n(C3CCC3)c2c1` [Compound 2659], for which the melting point was in the range of 102 to 105 °C.

In turn, `CCOc1ccc2c(C#N)c(-c3ccc(S(=O)(=O)N4CCCCC4)cc3)n(C3CCC3)c2c1` [Compound 2661] showed a melting point of 195 to 202 °C.

On to `CCn1nnc(COc2ccc3c(C#N)c(-c4ccc(NC(=O)OC(C)C)cc4)n(C4CCC4)c3c2)n1` [Compound 2667], for which the melting point was in the range of 184 to 190 °C.

`CC(OC(=O)Nc1ccc(-c2c(C#N)c3ccc(OC4CCOCC4)cc3n2C2CCC2)cc1)C(F)(F)F` (stereo not drawn) [Compound 2668] yielded a melting point of 195 to 197 °C.

Turning to `COCCOc1ccc2c(C#N)c(-c3ccc(NC(=O)OC(C)C(C)(C)C)cc3)n(C(C)C)c2c1` (stereo not drawn) [Compound 2670], the melting point was in the range of 204 to 205 °C.

`COCCOc1ccc2c(C#N)c(-c3ccc(NC(C4CC4)C4CC4)cc3)n(C(C)C)c2c1` [Compound 2671] registered a melting point of 148 to 150 °C.

Regarding `N#Cc1c(-c2ccc(NC(=O)OC3CCC3)cc2)n(C2CCC2)c2ccc(OCCn3cncn3)cc12` [Compound 2677], the melting point was 190 to 192 °C.

Take `COCCOc1ccc2c(C#N)c(-c3ccc(NC(=O)OC(C)C(F)(F)F)cc3)n(C(C)C)c2c1` (stereo not drawn) [Compound 2686]: the melting point lay in the range of 162 to 165 °C.

With `COCCOc1ccc2c(C#N)c(-c3ccc(NC(=O)OC(C)c4ccc(F)cc4)cc3)n(C(C)C)c2c1` (stereo not drawn) [Compound 2687], the melting point fell in the range of 89 to 112 °C.

Molecule `COCCOc1ccc2c(C#N)c(-c3ccc(NC(=O)OC(c4ccccc4)C(F)(F)F)cc3)n(C(C)C)c2c1` (stereo not drawn) [Compound 2688] gave a melting point of 150 to 155 °C.

Consider `CCOc1ccc2c(C#N)c(-c3ccc(S(=O)(=O)N4CCC[C@H]4CO)cc3)n(C3CCC3)c2c1` [Compound 2689], for which the melting point fell in the range of 180 to 183 °C.

Molecule `CCOc1ccc2c(C#N)c(-c3ccc(S(=O)(=O)N4CCC[C@@H]4CO)cc3)n(C3CCC3)c2c1` [Compound 2690] showed a melting point of 170 to 172 °C.

Molecule `C[C@@H](OC(=O)Nc1ccc(-c2c(C#N)c3ccc(OCCCS(C)(=O)=O)cc3n2C2CCC2)cc1)C1CC1` [Compound 2694] displayed a melting point of 155 to 160 °C.

`C[C@@H](OC(=O)Nc1ccc(-c2c(C#N)c3ccc(OC4CCOCC4)cc3n2C2CCC2)cc1)C1CC1` [Compound 2696] registered a melting point of 126 to 128 °C.

`CC(C)OC(=O)Nc1ccc(-c2c(C#N)c3ccc(OCCSc4ccccn4)cc3n2C2CCC2)cc1` [Compound 2697] came in with a melting point of 145 to 146 °C.

`CC(C)OC(=O)Nc1ccc(-c2c(C#N)c3ccc(OCCSc4ncccn4)cc3n2C2CCC2)cc1` [Compound 2698] gave a melting point of 69 to 72 °C.

The molecule `Cc1nnc(SCCOc2ccc3c(C#N)c(-c4ccc(NC(=O)OC(C)C)cc4)n(C4CCC4)c3c2)s1` [Compound 2699] showed a melting point of 150 to 151 °C.

`CSCCOc1ccc2c(C#N)c(-c3ccc(NC(=O)OC(C)C)cc3)n(C3CCC3)c2c1` [Compound 2700] displayed a melting point of 132 to 133 °C.

For the molecule `COCCOc1ccc2c(C#N)c(-c3ccc(NC(=O)O[C@H](C)C4CC4)cc3)n(C3CCC3)c2c1` [Compound 2702], the melting point lay within 116 to 117 °C.

Take `C[C@@H](OC(=O)Nc1ccc(-c2c(C#N)c3ccc(O[C@H]4CCOC4)cc3n2C2CCC2)cc1)C1CC1` [Compound 2703]: the melting point is 166 to 168 °C.

The molecule `CCOc1ccc2c(C#N)c(-c3ccc(NC(=O)O[C@H](C)c4ccncc4)cc3)n(C3CCC3)c2c1` [Compound 2705] had a melting point of 180 to 183 °C.

With `CCOc1ccc2c(C#N)c(-c3ccc(NC(=O)O[C@@H](C)c4ccncc4)cc3)n(C3CCC3)c2c1` [Compound 2706], the melting point lay within 180 to 183 °C.

`CC(OC(=O)Nc1ccc(-c2c(C#N)c3ccc(Oc4ncccn4)cc3n2C2CCC2)cc1)C(F)(F)F` (stereo not drawn) [Compound 2707] yielded a melting point of 211 to 213 °C.

In turn, `CC(OC(=O)Nc1ccc(-c2c(C#N)c3ccc(Oc4ncccn4)cc3n2C2CCC2)cc1)c1ccc(F)cc1` (stereo not drawn) [Compound 2708] came in with a melting point of 200 to 202 °C.

The molecule `N#Cc1c(-c2ccc(NC(=O)OC(c3ccccc3)C(F)(F)F)cc2)n(C2CCC2)c2cc(Oc3ncccn3)ccc12` (stereo not drawn) [Compound 2709] yielded a melting point of 246 to 248 °C.

For the molecule `CC(NC(=O)Nc1ccc(-c2c(C#N)c3ccc(Oc4ncccn4)cc3n2C2CCC2)cc1)c1ccc(F)cc1` (stereo not drawn) [Compound 2710], the melting point was in the range of 240 to 242 °C.

With `COCCOc1ccc2c(C#N)c(-c3ccc(NC(=O)O[C@H](C)C4CC4)cc3)n(C3CC3)c2c1` [Compound 2711], the melting point lay within 157 to 159 °C.

As to `C[C@@H](OC(=O)Nc1ccc(-c2c(C#N)c3ccc(OC4CCOCC4)cc3n2C2CC2)cc1)C1CC1` [Compound 2712], the melting point lay within 149 to 151 °C.

Molecule `CCSc1ccc2c(C#N)c(-c3ccc(NC(=O)OC(C)C)cc3)n(C3CCC3)c2c1` [Compound 2713] gave a melting point of 150 to 152 °C.

In turn, `CC[S+]([O-])c1ccc2c(C#N)c(-c3ccc(NC(=O)OC(C)C)cc3)n(C3CCC3)c2c1` (stereo not drawn) [Compound 2714] had a melting point of 165 to 168 °C.

As for `Cc1nccc(Oc2ccc3c(C#N)c(-c4ccc(NC(=O)O[C@H](C)C5CC5)cc4)n(C4CC4)c3c2)n1` [Compound 2715], the melting point was 123 to 125 °C.

Take `C[C@@H](OC(=O)Nc1ccc(-c2c(C#N)c3ccc(Oc4ncccn4)cc3n2C2CCC2)cc1)c1ccc(F)cc1` [Compound 2716]: the melting point was 173 to 175 °C.

In the case of `COCCOc1ccc2c(C#N)c(-c3ccc(NC(=O)OC(C)(C)C(F)(F)F)cc3)n(C(C)C)c2c1` [Compound 2718], the melting point lay within 188 to 191 °C.

`COCCOc1ccc2c(C#N)c(-c3ccc(NC(=O)O[C@H](C)C4CC4)cc3)n(C(C)C)c2c1` [Compound 2719]: the melting point was in the range of 88 to 100 °C.

For `C[C@@H](OC(=O)Nc1ccc(-c2c(C#N)c3cc(OCCCn4ccnc4)ccc3n2C2CCC2)cc1)C1CC1` [Compound 2723], the melting point lay within 182 to 184 °C.

As to `N#Cc1c(-c2ccc(NC(=O)OCc3ccccc3)cc2)n(C2CCC2)c2ccc(OCCCn3ccnc3)cc12` [Compound 2726], the melting point lay within 229 to 231 °C.

In the case of `CC(C)NC(=O)Nc1ccc(-c2c(C#N)c3cc(OCCCn4ccnc4)ccc3n2C2CCC2)cc1` [Compound 2727], the melting point was 232 to 234 °C.

`CC(OC(=O)Nc1ccc(-c2c(C#N)c3cc(OCCCn4cncn4)ccc3n2C2CCC2)cc1)C1CCC1` (stereo not drawn) [Compound 2730] displayed a melting point of 149 to 150 °C.

`N#Cc1c(-c2ccc(NC(=O)OCc3ccccc3)cc2)n(C2CCC2)c2ccc(OCCCn3cncn3)cc12` [Compound 2732] yielded a melting point of 215 to 217 °C.

`C[C@H](OC(=O)Nc1ccc(-c2c(C#N)c3cc(OCCCn4cncn4)ccc3n2C2CCC2)cc1)c1ccccc1` [Compound 2733] yielded a melting point of 206 to 208 °C.

For the molecule `C[C@@H](OC(=O)Nc1ccc(-c2c(C#N)c3cc(OCCCn4cncn4)ccc3n2C2CCC2)cc1)c1ccccc1` [Compound 2734], the melting point lay within 206 to 208 °C.

As to `COc1ccnc(Oc2ccc3c(C#N)c(-c4ccc(NC(=O)O[C@H](C)C5CC5)cc4)n(C4CCC4)c3c2)n1` [Compound 2736], the melting point lay within 161 to 164 °C.

`COc1ccnc(Oc2ccc3c(C#N)c(-c4ccc(NC(=O)OC(C)C)cc4)n(C4CCC4)c3c2)n1` [Compound 2739] had a melting point of 179 to 183 °C.

In the case of `CC(C)n1c(-c2ccc(NC(=O)O[C@H](C)C3CC3)cc2)c(C#N)c2ccc(OC3CCOCC3)cc21` [Compound 2741], the melting point is 208 to 210 °C.

As for `CC(C)n1c(-c2ccc(NC(=O)O[C@H](C)C3CC3)cc2)c(C#N)c2ccc(O[C@H]3CCOC3)cc21` [Compound 2742], the melting point was 189 to 192 °C.

Molecule `CC(C)n1c(-c2ccc(NC(=O)O[C@H](C)C3CC3)cc2)c(C#N)c2ccc(O[C@@H]3CCOC3)cc21` [Compound 2743] yielded a melting point of 151 to 153 °C.

For the molecule `CCOP(=O)(Nc1ccc(-c2c(C#N)c3ccc(OC4CCOCC4)cc3n2C2CCC2)cc1)OCC` [Compound 2744], the melting point is 195 to 197 °C.

`CCS(=O)(=O)Nc1ccc(-c2c(C#N)c3ccc(OC4CCOCC4)cc3n2C2CCC2)cc1` [Compound 2745] showed a melting point of 207 to 209 °C.

For `CCCS(=O)(=O)Nc1ccc(-c2c(C#N)c3ccc(OC4CCOCC4)cc3n2C2CCC2)cc1` [Compound 2746], the melting point lay in the range of 185 to 187 °C.

For the molecule `N#Cc1c(-c2ccc(NS(=O)(=O)C3CC3)cc2)n(C2CCC2)c2cc(OC3CCOCC3)ccc12` [Compound 2747], the melting point was 202 to 204 °C.

With `CC(C)S(=O)(=O)Nc1ccc(-c2c(C#N)c3ccc(OC4CCOCC4)cc3n2C2CCC2)cc1` [Compound 2748], the melting point lay within 211 to 213 °C.

On to `N#Cc1c(-c2ccc(N3CCCS3(=O)=O)cc2)n(C2CCC2)c2cc(OC3CCOCC3)ccc12` [Compound 2749], for which the melting point lay in the range of 224 to 226 °C.

As to `COc1ccnc(Oc2ccc3c(C#N)c(-c4ccc(NC(=O)NC(C)C)cc4)n(C4CCC4)c3c2)n1` [Compound 2750], the melting point was 221 to 225 °C.

On to `CCN(CC)C(=O)c1ccc(-c2c(C#N)c3ccc(OCCOC)cc3n2C2CCC2)cc1` [Compound 2752], for which the melting point fell in the range of 136 to 138 °C.

Take `COCCOc1ccc2c(C#N)c(-c3ccc(C(=O)NC(C)C)cc3)n(C3CCC3)c2c1` [Compound 2753]: the melting point lay in the range of 202 to 204 °C.

Molecule `COCCOc1ccc2c(C#N)c(-c3ccc(C(=O)N4CCOCC4)cc3)n(C3CCC3)c2c1` [Compound 2754] returned a melting point of 148 to 150 °C.

Regarding `COCCOc1ccc2c(C#N)c(-c3ccc(C(=O)N4CCC4)cc3)n(C3CCC3)c2c1` [Compound 2755], the melting point fell in the range of 166 to 168 °C.

The molecule `COCCOc1ccc2c(C#N)c(-c3ccc(C(=O)N4CCCC4)cc3)n(C3CCC3)c2c1` [Compound 2756] showed a melting point of 162 to 164 °C.

Regarding `COCCOc1ccc2c(C#N)c(-c3ccc(C(=O)N4CCCCC4)cc3)n(C3CCC3)c2c1` [Compound 2757], the melting point was in the range of 155 to 158 °C.

The molecule `COCCOc1ccc2c(C#N)c(-c3ccc(C(=O)NC4CCCC4)cc3)n(C3CCC3)c2c1` [Compound 2758] yielded a melting point of 194 to 196 °C.

What is called melting point is the temperature, or range, at which the solid turns liquid.
